Data from patent US11827628B2, “Compositions and methods for inhibition of the JAK pathway” (Rigel Pharmaceuticals, Inc., priority 2005, dated 2023).
Structures can show the parent of a compound that is named as a salt. Where two headings read alike, the source gives them in different places. Values belong to the compound of their own block, whether it stands above or below them.

What was measured:
[1] = system: IL-4 stimulated expression of CD23 in human Ramos B cells (JAK-1 and JAK-3); assay: Assay for Ramos B-Cell Line Stimulated with IL-4 (CD23 upregulation, FACS); format: cell-based; details: read-out: IC50, Example 41
Procedure, shortened: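 Log-phase Ramos cells, 1 h compound pre-incubation at 37 °C; IL-4 50 units/mL final, 20-24 h; CD23-PE stain, FACS; IC50.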

[2] = system: Primary human T-cells; assay: Primary Human T-Cell Proliferation Assay Stimulated with IL-2 (CellTiter-Glo); format: cell-based; details: read-out: IC50, Example 42
Excerpt: The activity of the active compounds of the invention may further be characterized by assaying the effect of the 2,4-substituted pyrimidinediamine compounds described herein on the proliferative response of primary human T-cells. In this assay, primary human T-cells derived from peripheral blood and pre-activated through stimulation of the T-cell receptor and CD28, proliferate in culture in response to the cytokine Interleukin-2 (IL-2). This proliferative response is dependent on the activation of JAK1 and JAK3 tyrosine kinases, which phosphorylate and activate the transcription factor Stat-5. The primary human T-cells are incubated with the 2,4-substituted pyrimidinediamine compounds in the presence of IL-2 for 72 hours and at the assay endpoint intracellular ATP concentrations are measured to assess cell viability. A reduction in cell proliferation compared to control conditions is indicative of inhibition of the JAK kinase pathway. An exemplary assay of this type is described in greater detail in Example 42
Primary human T-cells derived from peripheral blood and pre-activated through stimulation of the T-cell receptor and CD28, proliferate in vitro in response to the cytokine Interleukin-2 (IL-2). This proliferative response is dependent on the activation of JAK-1 and JAK-3 tyrosine kinases, which phosphorylate and activate the transcription factor Stat-5.
Human primary T cells were prepared as follows. Whole blood was obtained from a healthy volunteer, mixed 1:1 with PBS, layered on to Ficoll Hypaque (Amersham Pharmacia Biotech, Piscataway, NJ, Catalog #17-1440-03) in 2:1 blood/PBS:ficoll ratio and centrifuged for 30 min at 4° C. at 1750 rpm. The lymphocytes at the serum: ficoll interface were recovered and washed twice with 5 volumes of PBS. The cells were resuspended in Yssel's medium (Gemini Bio-products, Woodland, CA, Catalog #400-103) containing 40 U/mL recombinant IL2 (R and D Systems, Minneapolis, MN, Catalog #202-IL (20 rig)) and seeded into a flask pre-coated with 1 μg/mL anti-CD3 (BD Pharmingen, San Diego, CA, Catalog #555336) and 5 μg/mL anti-CD28 (Immunotech, Beckman Coulter of Brea CA, Catalog #IM1376). The primary T-cells were stimulated for 3-4 days, then transferred to a fresh flask and maintained in RPMI with 10% FBS and 40 U/mL IL-2.
Primary T-cells were washed twice with PBS to remove the IL-2 and resuspended in Yssel's medium at 2×10^6 cells/mL. 50 μL of cell suspension containing 80 U/mL IL-2 was added to each well of a flat bottom 96 well black plate. For the unstimulated control, IL-2 was omitted from the last column on the plate. Compounds were serially diluted in dimethyl sulfoxide (DMSO, 99.7% pure, cell culture tested, Sigma-Aldrich, St. Louis, MO, Catalog No. D2650) from 5 mM in 3-fold dilutions, and then diluted 1:250 in Yssel's medium. 50 μL of 2× compound was added per well in duplicate and the cells were allowed to proliferate for 72 hours at 37° C.
Proliferation was measured using CellTiter-Glo® Luminescent Cell Viability Assay (Promega), which determines the number of viable cells in culture based on quantitation of the ATP present, as an indicator of metabolically active cells. The substrate was thawed and allowed to come to room temperature. After mixing the Cell Titer-Glo reagent and diluent together, 100 μL was added to each well. The plates were mixed on an orbital shaker for two minutes to induce lysis and incubated at room temperature for an additional ten minutes to allow the signal to equilibrate. Detection was performed using a Wallac Victor2 1420 multilabel counter purchased from Perkin Elmer, Shelton, CT The IC50 calculated based on the results of this assay are provided in TABLE XII.

[3] = Homo sapiens, Ramos, Ramos B cells stimulated with IL-4, CD23 expression by FACS
[4] = Homo sapiens, T-cell, primary human T-cells stimulated with IL-2, proliferation
[5] = Ramos B cells stimulated with IL-4, CD23 expression by FACS
[6] = primary human T-cells stimulated with IL-2, proliferation
[7] = Ramos B-cell line stimulated with IL-4, CD23 expression by FACS
[8] = primary human T-cell proliferation stimulated with IL-2
[9] = Homo sapiens, Ramos, Ramos B-cell line stimulated with IL-4, CD23 expression by FACS
[10] = Homo sapiens, T-cell, primary human T-cell proliferation stimulated with IL-2

Compound: Cc1ccc(Nc2ncc(F)c(Nc3ccc(NC(=O)CC#N)cc3)n2)cc1S(N)(=O)=O [Compound I-79, N2-(3-Aminosulfonyl-4-methylphenyl)-N4-[4-(N-cyanoacetyl)aminophneyl]-5-fluoro-2,4-pyrimidinediamine]
IC50 [1, 7]: 461 nM | IC50 [2, 8]: 1060 nM

Compound: COC(=O)c1ccc(Nc2nc(Nc3cccc(S(N)(=O)=O)c3)ncc2F)s1 [IX-47, N2-(3-Aminosulfonylphenyl)-5-fluoro-N4-(5-methoxycarbonyl-thiophene-2-yl)-2,4-pyrimidinediamine]
IC50 [1, 3]: 223 nM | IC50 [2, 4]: 2390 nM

Compound: N2-(3-Aminosulfonylphenyl)-N4-(4-chloro-3-trifluoromethylphenyl)-5-fluoro-2,4-pyrimidinediamine [VI-38]
IC50 [1, 5]: 414 nM | IC50 [2, 6]: 2070 nM

Compound: NS(=O)(=O)c1ccc(Nc2ncc(F)c(Nc3ccc(Oc4cccnc4)cc3)n2)cc1 [II-14, N2-(4-Aminosulfonylphenyl)-5-fluoro-N4-[4-(3-pyridyloxy)phenyl]-2,4-pyrimidinediamine]
IC50 [1, 9]: 46.9 nM | IC50 [2, 10]: 579 nM

Compound: Cc1cc(COc2ccc(Nc3nc(Nc4ccc(S(N)(=O)=O)cc4)ncc3F)cc2C)no1 [Compound I-240, N2-(4-Aminosulfonylphenyl)-5-fluoro-N4-[3methyl-4-(5-methylisoxazol-3-yl)methyleneoxyphenyl]-2,4-pyrimidinediamine]
IC50 [1, 7]: 205 nM | IC50 [2, 8]: 5260 nM

Compound: CCC(=O)NS(=O)(=O)c1cc(Nc2ncc(F)c(Nc3ccc(OCC#N)c(F)c3)n2)ccc1C [Compound I-49, N4-(4-Cyanomethoxy-3-fluorophenyl)-5-fluoro-N2-(4-methyl-3-propionylaminosulfonylphenyl)-2,4-pyrimidinediamine Sodium Salt]
IC50 ([1]; Ramos B-cell line stimulated with IL-4, CD23 expression by FACS, sodium salt): 2320 nM | IC50 [2, 10]: 5560 nM

Compound: CN1CCN(C(=O)c2ccc(Nc3nc(Nc4cccc(S(N)(=O)=O)c4)ncc3F)cc2)CC1 [IX-28, N2-(3-Aminosulfonylphenyl)-5-fluoro-N4-[4-(4-methylpiperazin-1-ylcarbonyl)phenyl]-2,4-pyrimidinediamine]
IC50 [1, 3]: 1660 nM | IC50 [2, 4]: 10100 nM

Compound: NS(=O)(=O)c1cc(Nc2ncc(F)c(Nc3ccc(Oc4cccnc4)cc3)n2)cc(S(N)(=O)=O)c1 [II-15, N2-[3,5-bis(Aminosulfonyl)phenyl)-5-fluoro-N4-[4-(3-pyridyloxy)phenyl]-2,4-pyrimidinediamine]
IC50 [1, 9]: 982 nM | IC50 [2, 10]: 1100 nM

Compound: COc1cc(Nc2ncc(F)c(Nc3cccc(OCC#N)c3)n2)ccc1S(N)(=O)=O [Compound I-7, N2-(4-Aminosulfonyl-3-methoxy)phenyl-N4-(3-cyanomethoxy)phenyl-5-fluoro-2,4-pyrimidinediamine]
IC50 [1, 7]: 120 nM | IC50 [2, 8]: 502 nM

Compound: CN(C)S(=O)(=O)c1cccc(Nc2nc(Nc3cccc(S(N)(=O)=O)c3)ncc2F)c1 [IV-9, N2-(3-Aminosulfonylphenyl)-5-fluoro-N4-[3-(N,N-dimethylaminosulfonyl)phenyl]-2,4-pyrimidinediamine]
IC50 [1, 3]: 190 nM | IC50 [2, 4]: 1000 nM

Compound: NS(=O)(=O)c1ccc(Nc2ncc(F)c(Nc3ccc(-c4ccccn4)c(OCF)c3)n2)cc1 [Compound I-177, N2-(4-Aminosulfonylphenyl)-5-fluoro-N4-[4-(2-pyridinyl)-3-fluoromethyleneoxyphenyl]-2,4-pyrimidinediamine]
IC50 [2, 8]: 500 nM

Compound: C#CCNS(=O)(=O)c1ccc(Nc2nc(Nc3ccc(S(N)(=O)=O)cc3)ncc2F)cc1 [VI-77, N2-(4-Aminosulfonylphenyl)-5-fluoro-N4-[4-(prop-2-ynylaminosulfonyl)phenyl]-2,4-pyrimidinediamine]
IC50 [2, 4]: 43300 nM

More lines, main results first:

IC50 [1, 3]: 28.9 nM
Compound: Cc1ccc(Nc2ncc(C)c(Nc3ccc4c(c3)N(C)C(=O)CS4)n2)cc1S(N)(=O)=O [VII-33, N2-(3-Aminosulphonyl-4-methylphenyl)-5-methyl-N4-(4-methyl-3-oxo-benzo[1,4]thiazin-6-yl)-2,4-pyrimidinediamine]
IC50 [2, 4]: 18.4 nM

IC50 [1, 5]: 3330 nM
Compound: NS(=O)(=O)c1ccc(Nc2ncc(F)c(Nc3ccc(Cn4ccnn4)cc3)n2)cc1 [III-96]
IC50 [2, 6]: 2190 nM

IC50 [1, 3]: 315 nM
Compound: Cc1ccc(Nc2ncc(F)c(Nc3cccc4ncccc34)n2)cc1S(N)(=O)=O [VII-67, N2-(3-Aminosulfonyl-4-methylphenyl)-5-fluoro-N4-(quinolin-5-yl)-2,4-pyrimidinediamine]
IC50 [2, 4]: 768 nM

IC50 [1, 5]: 272 nM
Compound: NS(=O)(=O)c1cccc(Nc2ncc(F)c(Nc3ccc(OC(F)(F)F)cc3)n2)c1 [VI-33, N2-(3-aminosulfonylphenyl)-5-fluoro-N4-(4-trofluoromethoxyphenyl)-2,4-pyrimidinediamine]
IC50 [2, 6]: 660 nM

IC50 [1, 7]: 183 nM
Compound: CCn1nccc1NC(=O)Cc1ccc(Nc2nc(Nc3ccc(C)c(S(N)(=O)=O)c3)ncc2F)cc1 [III-52, N2-(3-Aminosulfonyl-4-methylphenyl)-5-N4-[(1-ethylpyrazolyl-5-aminocarbonylmethylene)phenyl]-5-fluoro-2,4-pyrimidinediamine]
IC50 [2, 8]: 1200 nM

IC50 [1, 9]: 144 nM
Compound: NC(=O)OCCc1ccc(Nc2nc(Nc3ccc(Cl)c(S(N)(=O)=O)c3)ncc2F)cc1 [III-55, N4-{4-[2-(Aminocarbonyloxy)ethyl]phenyl}-N2-(3-aminosulfonyl-4-chlorophenyl)-5-fluoro-2,4-pyrimidinediamine]
IC50 [2, 10]: 973 nM

IC50 [1, 3]: 68.5 nM
Compound: Cc1ccc(Nc2nc(Nc3cccc(S(N)(=O)=O)c3)ncc2F)cc1C#N [VI-99, N2-(3-Aminosulfonylphenyl)-N4-(3-cyano-4-methylphenyl)-5-fluoro-2,4-pyrimidinediamine]
IC50 [2, 4]: 617 nM

IC50 [1, 3]: 541 nM
Compound: Cc1ccc(Nc2ncc(F)c(Nc3ccc(CCCO)cc3)n2)cc1S(N)(=O)=O [VI-87, N2-(3-Aminosulfonyl-4-methylphenyl)-5-fluoro-N4-[4-(3-hydroxypropyl)phenyl]-2,4-pyrimidinediamine]
IC50 [2, 4]: 1240 nM

IC50 [1, 5]: 286 nM
Compound: CNC(=O)N1CCCc2cc(Nc3nc(Nc4cccc(S(N)(=O)=O)c4)ncc3F)ccc21 [VII-20, N2-(3-Aminosulfonylphenyl)-5-fluoro-N4-[1-(methylaminocarbonyl)-1,2,3,4-tetrahydroquin-6-yl]-2,4-pyrimidinediamine]
IC50 [2, 6]: 698 nM

IC50 [1, 5]: 173 nM
Compound: CCNC(=O)NCCc1ccc(Nc2nc(Nc3cccc(S(N)(=O)=O)c3)ncc2F)cc1 [III-123, N2-(3-aminosulfonyl)phenyl-N4-[4-(2-ethylaminocarbonylamino)ethyl]phenyl-5-fluoro-2,4-pyrimidinediamine]
IC50 [2, 6]: 1390 nM

IC50 [1, 3]: 259 nM
Compound: Cc1cc(Nc2ncc(F)c(Nc3ccc(OC(F)(F)F)c(Cl)c3)n2)cc(S(N)(=O)=O)c1F [VI-16, N2-(3-Aminosulfonyl-4-fluoro-5-methylphenyl)-N4-(3-chloro-4-trifluoromethoxyphenyl)-5-fluoro-2,4-pyrimidinediamine]
IC50 [2, 4]: 3910 nM

IC50 [1, 3]: 202 nM
Compound: C#CCOc1cccc(Nc2nc(Nc3ccc(C)c(S(N)(=O)=O)c3)ncc2F)c1 [VI-57, N2-(3-Aminosulfonyl-4-methylphenyl)-5-fluoro-N4-[3-(prop-2-ynyloxy)phenyl]-2,4-pyrimidinediamine]
IC50 [2, 4]: 1180 nM
